Assay results from the NIST ThermoML archive (doi:10.1016/j.jct.2010.06.008).
Numbers after ± are expanded uncertainties.

Experiment: xn = mol fraction of the nth substance listed
Details: 101 kPa, Liquid; for speed of sound: Sing-around technique in a fixed-path interferometer; for mass density: Vibrating tube method

CC(C)CCl [1-chloro-2-methylpropane] + CCCCCC
Details	mass density, 283.15 K [kg/m3]	mass density, 298.15 K [kg/m3]	mass density, 313.15 K [kg/m3]	speed of sound, 283.15 K [m/s]	speed of sound, 298.15 K [m/s]	speed of sound, 313.15 K [m/s]
x2 = 0	888.845 ± 0.23	871.533 ± 0.24	853.902 ± 0.24	1141.7 ± 2.3	1078.6 ± 2.3	1016.3 ± 2.3
x2 = 0.0512	874.715 ± 0.24	857.627 ± 0.24	840.236 ± 0.24	1139.3 ± 2.3	1075.9 ± 2.3	1013.4 ± 2.3
x2 = 0.0999	861.62 ± 0.24	844.732 ± 0.24	827.564 ± 0.24	1137.3 ± 2.3	1073.7 ± 2.3	1011 ± 2.3
x2 = 0.2003	835.641 ± 0.24	819.166 ± 0.24	802.454 ± 0.24	1134 ± 2.3	1070 ± 2.3	1006.9 ± 2.3
x2 = 0.2993	811.259 ± 0.24	795.172 ± 0.24	778.889 ± 0.25	1131.9 ± 2.3	1067.5 ± 2.3	1003.9 ± 2.3
x2 = 0.4005	787.516 ± 0.24	771.817 ± 0.25	755.943 ± 0.25	1130.6 ± 2.3	1065.8 ± 2.3	1001.8 ± 2.3
x2 = 0.4977	765.822 ± 0.25	750.487 ± 0.25	735.001 ± 0.25	1130.5 ± 2.3	1065.2 ± 2.3	1000.6 ± 2.3
x2 = 0.598	744.502 ± 0.25	729.51 ± 0.25	714.446 ± 0.25	1131.3 ± 2.3	1065.5 ± 2.3	1000.4 ± 2.3
x2 = 0.6993	723.963 ± 0.25	709.35 ± 0.25	694.648 ± 0.25	1133 ± 2.3	1066.7 ± 2.3	1001.1 ± 2.3
x2 = 0.799	704.731 ± 0.25	690.452 ± 0.25	676.142 ± 0.25	1135.8 ± 2.3	1069 ± 2.3	1002.8 ± 2.3
x2 = 0.8967	686.793 ± 0.25	672.832 ± 0.25	658.858 ± 0.26	1139.6 ± 2.3	1072.2 ± 2.3	1005.6 ± 2.3
x2 = 0.9472	677.811 ± 0.25	664.036 ± 0.26	650.244 ± 0.26	1142 ± 2.3	1074.3 ± 2.3	1007.5 ± 2.3

CC(C)CCl [1-chloro-2-methylpropane] + CCCCCCC
Details	mass density, 283.15 K [kg/m3]	mass density, 298.15 K [kg/m3]	mass density, 313.15 K [kg/m3]	speed of sound, 283.15 K [m/s]	speed of sound, 298.15 K [m/s]	speed of sound, 313.15 K [m/s]
x2 = 0	888.845 ± 0.23	871.533 ± 0.24	853.902 ± 0.24	1141.7 ± 2.3	1078.6 ± 2.3	1016.3 ± 2.3
x2 = 0.0507	874.748 ± 0.24	857.771 ± 0.24	840.47 ± 0.24	1142.2 ± 2.3	1079.1 ± 2.3	1016.8 ± 2.3
x2 = 0.0979	862.133 ± 0.24	845.448 ± 0.24	828.448 ± 0.24	1143 ± 2.3	1079.8 ± 2.3	1017.4 ± 2.3
x2 = 0.2004	836.427 ± 0.24	820.343 ± 0.24	803.95 ± 0.24	1145.4 ± 2.3	1082.2 ± 2.3	1019.6 ± 2.3
x2 = 0.3008	813.265 ± 0.24	797.726 ± 0.24	781.886 ± 0.24	1149 ± 2.3	1085.5 ± 2.3	1022.9 ± 2.3
x2 = 0.3993	792.269 ± 0.24	777.224 ± 0.24	761.888 ± 0.24	1153.4 ± 2.3	1089.8 ± 2.3	1027 ± 2.3
x2 = 0.4999	772.383 ± 0.24	757.812 ± 0.24	742.952 ± 0.25	1158.6 ± 2.3	1094.9 ± 2.3	1032 ± 2.3
x2 = 0.5973	754.5 ± 0.24	740.349 ± 0.25	725.924 ± 0.25	1164.4 ± 2.3	1100.6 ± 2.3	1037.5 ± 2.3
x2 = 0.6994	737.065 ± 0.25	723.337 ± 0.25	709.345 ± 0.25	1171.2 ± 2.3	1107.2 ± 2.3	1044 ± 2.3
x2 = 0.8006	720.978 ± 0.25	707.64 ± 0.25	694.051 ± 0.25	1178.7 ± 2.3	1114.2 ± 2.3	1051.1 ± 2.3
x2 = 0.9002	706.284 ± 0.25	693.212 ± 0.25	679.976 ± 0.25	1187 ± 2.3	1122.3 ± 2.3	1058.9 ± 2.3
x2 = 0.9491	699.353 ± 0.25	686.54 ± 0.25	673.496 ± 0.25	1191 ± 2.3	1126.4 ± 2.3	1062.7 ± 2.3

CCCCCl [1-chlorobutane] + CCCCCC
Details	mass density, 283.15 K [kg/m3]	mass density, 298.15 K [kg/m3]	mass density, 313.15 K [kg/m3]	speed of sound, 283.15 K [m/s]	speed of sound, 298.15 K [m/s]	speed of sound, 313.15 K [m/s]
x2 = 0	897.339 ± 0.23	880.785 ± 0.23	863.882 ± 0.23	1180.1 ± 2.3	1118.2 ± 2.3	1056.9 ± 2.3
x2 = 0.0508	882.878 ± 0.24	866.478 ± 0.24	849.768 ± 0.24	1176 ± 2.3	1113.8 ± 2.3	1052.2 ± 2.3
x2 = 0.0992	869.441 ± 0.24	853.196 ± 0.24	836.65 ± 0.24	1172.3 ± 2.3	1109.7 ± 2.3	1047.9 ± 2.3
x2 = 0.1972	843.152 ± 0.24	827.205 ± 0.24	810.995 ± 0.24	1165.6 ± 2.3	1102.4 ± 2.3	1040 ± 2.3
x2 = 0.2966	817.766 ± 0.24	802.115 ± 0.24	786.257 ± 0.24	1159.7 ± 2.3	1095.9 ± 2.3	1032.8 ± 2.3
x2 = 0.3976	793.168 ± 0.24	777.821 ± 0.24	762.288 ± 0.24	1154.6 ± 2.3	1090.2 ± 2.3	1026.5 ± 2.3
x2 = 0.5009	769.237 ± 0.24	754.195 ± 0.24	739.001 ± 0.24	1150.5 ± 2.3	1085.6 ± 2.3	1021.2 ± 2.3
x2 = 0.6006	747.205 ± 0.24	732.45 ± 0.24	717.601 ± 0.25	1147.4 ± 2.3	1081.8 ± 2.3	1016.9 ± 2.3
x2 = 0.6982	726.617 ± 0.25	712.126 ± 0.25	697.583 ± 0.25	1145.2 ± 2.3	1079.1 ± 2.3	1013.6 ± 2.3
x2 = 0.7972	706.669 ± 0.25	692.488 ± 0.25	678.241 ± 0.25	1143.9 ± 2.3	1077.2 ± 2.3	1011.2 ± 2.3
x2 = 0.8979	687.33 ± 0.25	673.439 ± 0.25	659.508 ± 0.25	1143.7 ± 2.3	1076.4 ± 2.3	1009.8 ± 2.3
x2 = 0.9472	678.205 ± 0.25	664.449 ± 0.25	650.666 ± 0.25	1144.1 ± 2.3	1076.4 ± 2.3	1009.7 ± 2.3

CCCCCl [1-chlorobutane] + CCCCCCC
mass density [kg/m3]
Details	283.15 K	298.15 K	313.15 K
x2 = 0	897.339 ± 0.23	880.785 ± 0.23	863.882 ± 0.24
x2 = 0.0508	882.735 ± 0.24	866.442 ± 0.24	849.802 ± 0.24
x2 = 0.1017	868.636 ± 0.24	852.592 ± 0.24	836.205 ± 0.24
x2 = 0.1981	843.549 ± 0.24	827.947 ± 0.24	812.014 ± 0.24
x2 = 0.2989	819.278 ± 0.24	804.127 ± 0.24	788.662 ± 0.24
x2 = 0.4022	796.314 ± 0.24	781.594 ± 0.24	766.57 ± 0.24
x2 = 0.4998	776.207 ± 0.24	761.86 ± 0.24	747.232 ± 0.25
x2 = 0.6008	756.852 ± 0.24	742.869 ± 0.25	728.632 ± 0.25
x2 = 0.6989	739.334 ± 0.25	725.722 ± 0.25	711.853 ± 0.25
x2 = 0.7985	722.761 ± 0.25	709.483 ± 0.25	695.957 ± 0.25
x2 = 0.898	707.234 ± 0.25	694.282 ± 0.25	681.084 ± 0.25
x2 = 0.9498	699.591 ± 0.25	686.802 ± 0.25	673.764 ± 0.25

CC(C)(C)Cl [2-chloro-2-methylpropane] + CCCCCC
Details	mass density, 283.15 K [kg/m3]	mass density, 298.15 K [kg/m3]	mass density, 313.15 K [kg/m3]	speed of sound, 283.15 K [m/s]	speed of sound, 298.15 K [m/s]	speed of sound, 313.15 K [m/s]
x2 = 0	855.249 ± 0.24	837.096 ± 0.24	818.536 ± 0.24	1046.9 ± 2.3	983.25 ± 2.3	919.41 ± 2.3
x2 = 0.0495	843.636 ± 0.24	825.763 ± 0.24	807.514 ± 0.24	1049.8 ± 2.3	985.59 ± 2.3	922.06 ± 2.3
x2 = 0.0989	832.389 ± 0.24	814.802 ± 0.24	796.851 ± 0.24	1052.2 ± 2.3	987.79 ± 2.3	924.46 ± 2.3
x2 = 0.2019	809.862 ± 0.24	792.826 ± 0.24	775.465 ± 0.24	1058.6 ± 2.3	993.98 ± 2.3	930.06 ± 2.3
x2 = 0.2987	789.789 ± 0.24	773.235 ± 0.24	756.4 ± 0.25	1065.7 ± 2.3	1000.7 ± 2.3	936.45 ± 2.3
x2 = 0.4043	768.847 ± 0.24	752.8 ± 0.25	736.513 ± 0.25	1074.5 ± 2.3	1009.1 ± 2.3	944.41 ± 2.3
x2 = 0.4985	751.114 ± 0.25	735.482 ± 0.25	719.653 ± 0.25	1083.1 ± 2.3	1017.5 ± 2.3	952.34 ± 2.3
x2 = 0.6024	732.382 ± 0.25	717.205 ± 0.25	701.869 ± 0.25	1093.7 ± 2.3	1027.6 ± 2.3	962.01 ± 2.3
x2 = 0.7017	715.376 ± 0.25	700.606 ± 0.25	685.731 ± 0.25	1104.7 ± 2.3	1038.2 ± 2.3	972.24 ± 2.3
x2 = 0.7996	699.305 ± 0.25	684.94 ± 0.25	670.488 ± 0.25	1116.6 ± 2.3	1049.7 ± 2.3	983.31 ± 2.3
x2 = 0.9025	683.186 ± 0.25	669.222 ± 0.25	655.21 ± 0.26	1130.4 ± 2.3	1063 ± 2.3	996.24 ± 2.3
x2 = 0.9498	676.073 ± 0.25	662.283 ± 0.25	648.468 ± 0.26	1137.2 ± 2.3	1069.5 ± 2.3	1002.6 ± 2.3
